“And” between values parts separate entries of the source, which are not always exact repeats. Equal entries are not always repeated. The source made the active and inactive calls.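 How the source made its calls: active means compounds giving half or more protection of infected cells from virus-caused growth loss, again on retest; inactive means the rest.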
Test system: CEM cells HIV-1 protection, formazan growth assay
Assay: NCI AIDS Antiviral Assay
Conditions: for IC50: measured here: growth of uninfected CEM cells
How it was run: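 Human CEM cells, uninfected and HIV-1-infected, exposed to five drug concentrations; growth measured by soluble formazan assay and scored as percent protection from infection, with protecting compounds retested.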

SMILES | EC50 | IC50 | outcome
CC1=C(C(=O)Nc2ccc(C)cc2)C(c2cccc([N+](=O)[O-])c2)C(C(=O)Nc2ccc(C)cc2)=C(C)N1 | > 14.5 µM | > 14.5 µM | –
O=C(NN1CCOC1=O)OCCCl | > 200 µM | > 200 µM | –
Cc1ccc2nccc(/C=C/c3ccc(N(C)C)cc3)c2c1 | > 13.2 µM | 2.45 µM | –
O=CN(c1ccccc1)c1c([N+](=O)[O-])cc([N+](=O)[O-])c2c1=NCN=2 | > 79.4 µM | > 79.4 µM | –
COc1ccc(/C=C2/CSC/C(=C/c3ccc(OC)c(OC)c3)C2=O)cc1OC | > 9.12 µM | 4.9 µM | –
CC1=C(C)C2(C#N)C(=O)N3C(=NC(c4ccccc4)NC3c3ccccc3)C2(C#N)C(c2ccccc2)N1 (configuration not stated) | > 100 µM | > 100 µM | –
CC(O)CN1C(=O)c2cccc3cc([N+](=O)[O-])cc(c23)C1=O (configuration not stated) | > 200 µM | 12 µM | –
CCOP(=O)(OCC)/C(C#N)=C/c1ccc(C#N)cc1 | > 123 µM | > 123 µM | –
Cc1cn(C2CC(N=[N+]=[N-])C(COC(=O)C3CNC(=O)N3)O2)c(=O)[nH]c1=O (configuration not stated) | – | 93.3 µM | active
CC(Nc1cccc(Cl)c1)c1ccncc1 (configuration not stated) | > 200 µM | 95.5 µM | –
Nc1nc2sc3ccccc3c(=O)n2n1 | > 91.2 µM | > 91.2 µM | –
Cc1cc(=O)oc2cc(O)cc(OCc3ccccc3)c12 | > 107 µM | 41.7 µM | –
COc1cccc(/C=N/[N-]C(=O)c2ccncc2)c1[O-].[OH3+].[Pd+2] | > 16.6 µM | > 16.6 µM | –
O=C(c1ccc(Cl)cc1)c1ccc(OCCCCCCCCCCOc2ccc(C(=O)c3ccc(Cl)cc3)cc2)cc1 | > 16.6 µM | > 16.6 µM | –
O=C1Cc2ccccc2N1/N=C\c1ccc(O)cc1 | > 372 µM | 39.8 µM | –
CCC(C(=O)C(=O)OC)P1(=O)OC(C)(C)CN1C(C)(C)C (configuration not stated) | > 200 µM | > 200 µM | –
CC1(C)C2CCC1(CS(=O)(=O)O)C(=O)C2 (configuration not stated) | > 200 µM | > 200 µM | –
S=C1CSc2c(ccc3ccccc23)N1 | > 200 µM | 141 µM | –
CCN1C[C@]2(C)CC[C@H](OC)C34C1C([C@H](OC(C)=O)[C@@H]32)[C@@]1(OC)C[C@H](OC)[C@H]2C[C@@H]4[C@@H]1[C@H]2O | > 77.6 µM | > 77.6 µM | –
C[C@H](O)C(=O)SC[C@H](NC(=O)CC[C@@H](N)C(=O)O)C(=O)NCC(=O)O | > 200 µM | > 200 µM | –
NC12CC3CC(C1)CC(C(=O)O)(C3)C2 | > 1070 µM | > 1070 µM | –
CC(C)=NOC(=O)CNC(=O)C(Cc1ccccc1)NC(=O)C(C)NC(=O)OC(C)(C)C (configuration not stated) | > 200 µM | > 200 µM | –

SMILES | EC50 | IC50 | outcome
CCCCN(CC)CC(C(C)=O)c1c(O)c2ccccc2oc1=O (configuration not stated) | > 70.8 µM | > 70.8 µM | –
Cc1ccc(S(=O)(=O)N2CCCN(S(=O)(=O)c3ccc(C)cc3)CCN(S(=O)(=O)c3ccc(C)cc3)CCCSCC2)cc1 | > 5.5 µM | > 5.5 µM | –
C[C@]12CC[C@H](OC(=O)Cc3ccc(N(CCCl)CCCl)cc3)CC1CC[C@@H]1C2CC[C@]2(C)NC(=O)CCC12 (some centres not stated) | > 17.8 µM | 2.95 µM | –
N#C/C(=C\c1c(O)ccc2ccccc12)c1ccc([N+](=O)[O-])cc1 | > 100 µM | > 100 µM | –
CC(C)(C)c1ccc2c(c1)CNCCNCCNCc1cc(C(C)(C)C)ccc1OCC1(CO2)COc2ccc(C(C)(C)C)cc2CNCCNCCNCc2cc(C(C)(C)C)ccc2OC1 | > 1.51 µM | 0.813 µM | –
COC(=O)c1ccccc1NC(=O)/C(=N\NC(C)(C)C)C(C#N)c1nc(-c2ccc([N+](=O)[O-])cc2)cs1 (configuration not stated) | > 69.2 µM | > 69.2 µM | –
CC1CCC/C1=C(/I)C(=O)c1ccccc1 (configuration not stated) | > 200 µM | 58.9 µM | –
CC1CN=C(CCc2ccc(NC(=O)c3ccc(C(=O)Nc4ccc(CCC5=NCC(C)N5)cc4)cc3)cc2)N1 (configuration not stated) | > 200 µM | 45.7 µM | –
CC(C)Oc1c(C2(c3ccccc3O)SCCCS2)c(=O)c1=O | > 200 µM | 112 µM | –
c1csc(-c2nn3c(C45CC6CC(CC(C6)C4)C5)nnc3s2)c1 | > 200 µM | > 200 µM | –
O=C(OCCN1CCCCCC1)C(c1ccsc1)C1CCCCC1 (configuration not stated) | > 200 µM | 35.5 µM | –
c1ccc(CSSCc2ccccc2)cc1 | – | – | inactive
Cn1c(=O)c2nc(-c3ccc(Cl)cc3)oc2n(C)c1=O | > 9.33 µM | > 9.33 µM | –
Cc1ccc(C)c(C(=O)CC2OC(O)C(Cl)C2Cl)c1 (configuration not stated) | > 117 µM | 64.6 µM | –
O=C(CO)CC(=O)C(=O)Nc1nc([N+](=O)[O-])cs1 | > 132 µM | > 132 µM | –
Nc1nc2ncc(CNc3ccc(C(=O)NC(CCC(=O)NC(CCC(=O)NC(CCC(=O)NC(CCC(=O)NC(CCC(=O)O)C(=O)O)C(=O)O)C(=O)O)C(=O)O)C(=O)O)cc3)nc2c(=O)[nH]1 (configuration not stated) | > 100 µM | > 100 µM | –
CCCCCCCCNC(=O)/C(=C\c1ccc(/C=C(/NC(=O)c2ccccc2)C(=O)NCCCCCCCC)cc1)NC(=O)c1ccccc1 | > 100 µM | 23.4 µM | –
C/C(CC(=O)Nc1ccc(C)cc1)=N\NC(N)=S | > 490 µM | 245 µM | –
O=C(Cn1c(=O)ccn(C2OC(CO)C(O)C2F)c1=O)c1ccc(F)cc1 (configuration not stated) | > 200 µM | > 200 µM | –
NS(=O)(=O)c1nnc(NC(=O)Nc2ccc(Cl)c(Cl)c2)s1 | > 200 µM | 26.3 µM | –
CC(NP(=O)(c1ccccc1)c1ccccc1)c1ccccc1 (configuration not stated) | > 200 µM | > 200 µM | –
CC(=O)n1[nH]c(=O)n(-c2ccccc2)c1=O | > 200 µM | > 200 µM | –

SMILES | EC50 | IC50 | outcome
CC(=O)N(CC(=O)C(=O)NNc1ccoc1)c1ccc(Cl)cc1 | > 200 µM | > 200 µM | –
CC(=O)[C@H]1[C@H](O)C[C@@]2(C)[C@@H]3CCc4cc(O)c(OC5OC(CO)C(O)C(O)C5O)cc4C3(C)C(=O)C[C@]12C (some centres not stated) | > 200 µM | > 200 µM | –
O=[N+]([O-])c1cccc(SSc2cccc([N+](=O)[O-])c2)c1 | > 200 µM and 20.4 µM | 4.57 µM and 34.7 µM and 6.31 µM | –
NCCOc1c2occc2cc2ccc(=O)oc12 | > 275 µM | 20.4 µM | –
Cc1cccc2c1[nH]c1[nH]c(=O)[nH]c(=O)c12 | > 200 µM | 151 µM | –
COC1CC(C)C(OC)C2=CC(=O)C=C(NC(=O)/C(C)=C/C=C\C(C)C(OC(N)=O)/C(C)=C\C(C)C1OC)C2=O (configuration not stated) | > 2 µM | 0.204 µM | –
CC(=N\N=C\c1ccccn1)/C(C)=N/N=C/c1ccccn1 | > 100 µM | 14.1 µM | –
CCOC(=O)c1c(C)c(C(C)=O)c2ccccn12 | > 145 µM | 95.5 µM | –
CCOC(=O)NC(C(F)(F)F)(C(F)(F)F)P(=O)(OC(C)C)OC(C)C | > 200 µM | > 200 µM | –
NC(Cc1cc(O)c(O)c(S(=O)(=O)c2ccccc2)c1)C(=O)O (configuration not stated) | – | – | inactive
COc1ccc(C(=O)/C=C/c2ccc(OCC#N)cc2)cc1OC | > 200 µM | 3.31 µM | –
Nc1cc(C(=O)O)ccc1O | > 200 µM | 39.8 µM | –
COc1ccc2c(c1)CCC/C2=N\NS(=O)(=O)c1c(C)cc(C)cc1C | > 200 µM | 33.1 µM | –
CN(CCNC(=O)c1cn(C)c2c1ccc1ccccc12)CCNC(=O)c1cn(C)c2c1ccc1ccccc12 | > 200 µM | 3.09 µM | –
COc1ccccc1/C=C1\Cc2ccccc2C1=O | > 20.9 µM | > 20.9 µM | –
NC(=O)c1nnsc1NC=O | > 200 µM | > 200 µM | –
Cc1cc(-c2c(Br)cc(C(=O)O)n2C)on1 | > 200 µM | > 200 µM | –
COC12C=CC(CC1)C(C)(C)C2O (configuration not stated) | > 200 µM | > 200 µM | inactive
Cc1ccc(SC2C(C)(C)N(C(C)C)P2(=O)N(C(C)C)C(C)C)cc1 (configuration not stated) | > 9.77 µM | > 9.77 µM | –
C=CCc1cc(CN2CCN(C)CC2)c(O)c(OC)c1 | > 200 µM | > 200 µM | –
ClCCC1OC(CCCl)OC(CCCl)O1 (configuration not stated) | > 200 µM | > 200 µM | –
N#CNC(N)=Nc1cc2ccccc2c2ccccc12 | > 100 µM | 4.27 µM | –

SMILES | EC50 | IC50 | outcome
O=C1CCN2CCC(=O)c3c2c(cc2ccccc32)N1 | > 26.9 µM | > 26.9 µM | –
COc1ccc(C(CC(=O)c2ccccc2)C(=O)c2ccc3c(c2)OCO3)cc1 (configuration not stated) | > 200 µM | > 200 µM | –
COCOC1C(=O)N(c2ccccc2)[C@@H]1c1ccccc1 (some centres not stated) | > 91.2 µM | > 91.2 µM | –
COC1/C=C/OC2(C)Oc3c(C)c(O)c4c(O)c(c(/C=N/N(C)C5OC(COC(=O)c6ccccc6)C(OC(=O)c6ccccc6)C5OC(=O)c5ccccc5)c(O)c4c3C2=O)NC(=O)C(C)=C/C=C/C(C)C(O)C(C)C(O)C(C)C(OC(C)=O)C1C (configuration not stated) | > 200 µM | 10 µM | –
O=C(O)[C@H](CSSC[C@@H](C(=O)O)N1C(=O)c2ccccc2C1=O)N1C(=O)c2ccccc2C1=O | > 200 µM | > 200 µM | –
COC(=O)C1(O)C(c2ccccc2)=NC2(C)CCCC21 (configuration not stated) | > 200 µM | > 200 µM | –
O=C1Nc2ccc([N+](=O)[O-])c3c([N+](=O)[O-])ccc1c23 | > 200 µM | 1.02 µM | –
Nc1cc2nc3ccccc3sc-2cc1=O | 3.39 µM | 60.3 µM | –
Cc1cc(C2CCCCC2)n(O)c(=O)c1 | – | – | inactive
COc1cc(C(Cc2ccccc2)NC(C)=O)oc(=O)c1 (configuration not stated) | > 871 µM | 155 µM | –
O=C(C[P+](c1ccccc1)(c1ccccc1)c1ccccc1)c1ccc(Br)cc1 | > 200 µM | 14.8 µM | –
CN/N=C(\C)CC(=O)Nc1cccc(Cl)c1C | > 14.8 µM | > 14.8 µM | –
CN(C)P(=S)(CCPc1ccccc1)N(C)C (configuration not stated) | > 18.2 µM | > 18.2 µM | –
Cc1cn(CCCCCCOC(=O)NC(CCCNC(N)=O)C(=O)O)c(=O)[nH]c1=O (configuration not stated) | > 200 µM | > 200 µM | –
CCn1cnnc1-c1nsc2ccccc12 | > 81.3 µM | 75.9 µM | –
CC1CN=C(Nc2cccc(C(F)(F)F)c2)S1 (configuration not stated) | > 200 µM | 57.5 µM | –
CC(O)(P(=O)(O)O)P(=O)(O)O.[NH-]CC[NH-].[NH-]CC[NH-].[Pd+2].[Pd+2] | > 200 µM | 87.1 µM | –
CC1N=C(c2ccccn2)C(c2ccccn2)=NC1c1ccccc1 (configuration not stated) | > 79.4 µM | > 79.4 µM | –
CC1=C(C(=O)Nc2ccccc2)C(c2cccc3ccccc23)C(C(=O)Nc2ccccc2)=C(C)N1 | – | – | inactive
